Experimental data published in US10899770B2, “Crystal form of ACP-196 salt and preparation method, pharmaceutical composition, and use thereof” (Hangzhou SoliPharma Co., Ltd., priority 2017, dated 2021).
Where a name gives a salt, the structure may show the parent alone.

Columns and labels:
Solubility test in water = format: physicochemical; conditions: for solubility compared with amorphous ACP-196 (ACP-196 of Preparation Example 1): in water, Comparative Example 1; for solubility / Solubility test results: water, 20 mg sample, 25° C. water bath, water added until completely dissolved (not more than 200 mL); for solubility: 25 °C, thermodynamic from solid
Experimental: Solubility test: took 20 mg ACP-196 of Preparation Example 1, 20 mg ACP-196 malate Form 1 of the invention, 20 mg ACP-196 hemifumarate Form 1 of the invention, 20 mg ACP-196 maleate Form 1 of the invention, 20 mg ACP-196 phosphate Form 1 of the invention and 20 mg ACP-196 sulfate Form 1 of the invention, then placed in the beaker respectively added 1.0 mL water, stirred for 1 to 2 minutes under the condition of 25° C. water bath, observed and if not totally dissolved, added water (not more than 200 mL in total) until it's completely dissolved.

[1] = Isothermal sorption (dynamic vapor sorption), weight change with relative humidity; format: physicochemical; conditions: for hygroscopicity compared with amorphous ACP-196: 30 to 80% RH; for weight change (isothermal sorption plot): between 30% and 80% relative humidity
Experimental: Dynamic vapor sorption data and isothermal sorption data were collected on TA Instruments Q5000 TGA. Method: A sample of 1 to 10 mg was placed in a platinum pan; the weight change of the sample during the change in relative humidity from 0% to 80% to 0% was measured.

SMILES | solubility compared with amorphous ACP-196 (ACP-196 of Preparation Example 1) (Solubility test in water) | solubility (Solubility test in water) [µg/mL] | hygroscopicity compared with amorphous ACP-196 [1] | Solubility test results (Solubility test in water) | weight change (isothermal sorption plot) [1] [%] | weight change (isothermal sorption plot) ([1]; listed as amorphous ACP-196) [%]
CC#CC(=O)N1CCC[C@H]1c1nc(-c2ccc(C(=O)Nc3ccccn3)cc2)c2c(N)nccn12.O=C(O)/C=C/C(=O)O [ACP-196 hemifumarate Form 1] | higher solubility | 910 | less hygroscopic |  |  | 
CC#CC(=O)N1CCC[C@H]1c1nc(-c2ccc(C(=O)Nc3ccccn3)cc2)c2c(N)nccn12 [ACP-196 malate Form 1] | higher solubility |  |  | 1430 µg/mL |  | 
CC#CC(=O)N1CCC[C@H]1c1nc(-c2ccc(C(=O)Nc3ccccn3)cc2)c2c(N)nccn12.O=C(O)/C=C\C(=O)O [ACP-196 maleate Form 1] | higher solubility | 1330 | less hygroscopic |  |  | 
CC#CC(=O)N1CCC[C@H]1c1nc(-c2ccc(C(=O)Nc3ccccn3)cc2)c2c(N)nccn12 [ACP-196 phosphate Form 1] | higher solubility |  | less hygroscopic |  |  | 
CC#CC(=O)N1CCC[C@H]1c1nc(-c2ccc(C(=O)Nc3ccccn3)cc2)c2c(N)nccn12 [ACP-196 sulfate Form 1] | higher solubility |  |  |  |  | 
CC#CC(=O)N1CCC[C@H]1c1nc(-c2ccc(C(=O)Nc3ccccn3)cc2)c2c(N)nccn12 [ACP-196] |  |  |  | Less than 0.1 mg/mL | 5.5 | 5.5
